Source: patent US20200392158A1, “INHIBITORS OF LEUCINE RICH REPEAT KINASE 2” (GLAXOSMITHKLINE INTELLECTUAL PROPERTY DEVELOPMENT LIMITED, priority 2017, published 2020)

Molecular target: T1, LRRK2 kinase in SH-SY5Y cells over-expressing recombinant full length LRRK2 (Homo sapiens, UniProt Q5S007)
T1 construct: A BacMam virus expressing full length recombinant LRRK2 was purchased from Invitrogen; host or cells: SH-SY5Y human neuroblastoma cells transduced with BacMam LRRK2 virus
Test: Recombinant cellular LRRK2 AlphaScreen assay (LRRK2 Ser935 phosphorylation)
Assay type: cell-based
Details: 60 min
From the text: b. Recombinant Cellular LRRK2 AlphaScreen Assay
To determine the activity of compounds against LRRK2 kinase in cells, the observed LRRK2 kinase-dependent modulation of LRRK2 Ser 935 phosphorylation (Dzamko et al., 2010, Biochem. J. 430: 405-413) was utilized to develop a quantitative 384 well plate-based immunoassay of LRRK2 Ser935 phosphorylation in the human neuroblastoma cell line SH-SY5Y, engineered to over-express recombinant full length LRRK2 protein.
A BacMam virus expressing full length recombinant LRRK2 was purchased from Invitrogen and amplified by inoculation of SF-9 cells at MOI 0.3 for 4-5 days in Sf-900 III SFM medium supplemented with 3% fetal bovine serum. Infected cell cultures were then centrifuged at 2000 g for 20 minutes, viral supernatant titer determined by anti-gp64 plaque assay and stored at 4° C.
Affinity-purified anti-phospho LRRK2 Ser935 sheep polyclonal antibody (Dzamko et al., 2010, Biochem. J. 430: 405-413) was biotinylated by standard methods (PerkinElmer). Anti-LRRK2 rabbit polyclonal antibody was purchased from Novus Biologicals. AlphaScreen Protein A IgG Kit (including acceptor and donor beads) was purchased from Perkin Elmer.
SH-SY5Y cells were grown in DMEM/F12 medium with 10% dialysed fetal bovine serum and harvested by treatment with 0.5% trypsin-EDTA for 5 minutes at 37° C. followed by centrifugation at 1000 rpm for 4 minutes. The cell pellet was resuspended in Opti-MEM reduced serum media (Invitrogen) at 200,000 cells/ml and mixed with the BacMam LRRK2 virus at M01=50. 50 μl cell solutions were then dispensed to each well of a 384-well plate and incubated at 37° C., 5% CO2 for 24 hours.
Compounds were prepared at 10× final assay concentration as 11 point 1 in 4 serial I dilutions in Opti-MEM reduced serum medium (Invitrogen 31985070) containing 1% DMSO. On the day of assay, 5.5 μl of the compound solutions were transferred from the compound plate to the cell assay plate to achieve a top final assay concentration of 10 uM. DMSO (0.1% final assay concentration) was added to column 6 and 2-(benzyloxy)-5-methyl-4-(1-methyl-1H-pyrazol-4-yl)-N-(pyridin-3-yl)benzamide (2 μM final assay concentration) was added to column 18 to serve as 0% and 100% inhibition controls, respectively.
Cells were incubated at 37° C., 5% CO2 for 60 minutes. The medium was then removed and cells lysed by addition of 20 μl of cell lysis buffer (Cell Signaling Technology) and incubation at 4° C. for 20 minutes. 10 μl of antibody/acceptor bead mix [(1/1000 biotinylated-pS935 LRRK2 antibody, 1/1000 total-LRRK2 antibody, 1/100 Acceptor beads in AlphaScreen detection buffer (25 mM Hepes (pH 7.4), 0.5% Triton X-100, 1 mg/ml Dextran 500 and 0.1% BSA)] was then added to each well and plates incubated for 2 hours at ambient temperature in the dark. 10 μl of donor beads solution (1/33.3 donor beads in AlphaScreen detection buffer) was then added to each well. Following incubation for a further 2 hours at ambient temperature in the dark, plates were read on an EnVision™ plate reader at emission 520-620 nm with excitation 680 nm. Dose response curve data was based on a sigmoidal dose-response model.

T1 sequence (Q5S007 whole entry): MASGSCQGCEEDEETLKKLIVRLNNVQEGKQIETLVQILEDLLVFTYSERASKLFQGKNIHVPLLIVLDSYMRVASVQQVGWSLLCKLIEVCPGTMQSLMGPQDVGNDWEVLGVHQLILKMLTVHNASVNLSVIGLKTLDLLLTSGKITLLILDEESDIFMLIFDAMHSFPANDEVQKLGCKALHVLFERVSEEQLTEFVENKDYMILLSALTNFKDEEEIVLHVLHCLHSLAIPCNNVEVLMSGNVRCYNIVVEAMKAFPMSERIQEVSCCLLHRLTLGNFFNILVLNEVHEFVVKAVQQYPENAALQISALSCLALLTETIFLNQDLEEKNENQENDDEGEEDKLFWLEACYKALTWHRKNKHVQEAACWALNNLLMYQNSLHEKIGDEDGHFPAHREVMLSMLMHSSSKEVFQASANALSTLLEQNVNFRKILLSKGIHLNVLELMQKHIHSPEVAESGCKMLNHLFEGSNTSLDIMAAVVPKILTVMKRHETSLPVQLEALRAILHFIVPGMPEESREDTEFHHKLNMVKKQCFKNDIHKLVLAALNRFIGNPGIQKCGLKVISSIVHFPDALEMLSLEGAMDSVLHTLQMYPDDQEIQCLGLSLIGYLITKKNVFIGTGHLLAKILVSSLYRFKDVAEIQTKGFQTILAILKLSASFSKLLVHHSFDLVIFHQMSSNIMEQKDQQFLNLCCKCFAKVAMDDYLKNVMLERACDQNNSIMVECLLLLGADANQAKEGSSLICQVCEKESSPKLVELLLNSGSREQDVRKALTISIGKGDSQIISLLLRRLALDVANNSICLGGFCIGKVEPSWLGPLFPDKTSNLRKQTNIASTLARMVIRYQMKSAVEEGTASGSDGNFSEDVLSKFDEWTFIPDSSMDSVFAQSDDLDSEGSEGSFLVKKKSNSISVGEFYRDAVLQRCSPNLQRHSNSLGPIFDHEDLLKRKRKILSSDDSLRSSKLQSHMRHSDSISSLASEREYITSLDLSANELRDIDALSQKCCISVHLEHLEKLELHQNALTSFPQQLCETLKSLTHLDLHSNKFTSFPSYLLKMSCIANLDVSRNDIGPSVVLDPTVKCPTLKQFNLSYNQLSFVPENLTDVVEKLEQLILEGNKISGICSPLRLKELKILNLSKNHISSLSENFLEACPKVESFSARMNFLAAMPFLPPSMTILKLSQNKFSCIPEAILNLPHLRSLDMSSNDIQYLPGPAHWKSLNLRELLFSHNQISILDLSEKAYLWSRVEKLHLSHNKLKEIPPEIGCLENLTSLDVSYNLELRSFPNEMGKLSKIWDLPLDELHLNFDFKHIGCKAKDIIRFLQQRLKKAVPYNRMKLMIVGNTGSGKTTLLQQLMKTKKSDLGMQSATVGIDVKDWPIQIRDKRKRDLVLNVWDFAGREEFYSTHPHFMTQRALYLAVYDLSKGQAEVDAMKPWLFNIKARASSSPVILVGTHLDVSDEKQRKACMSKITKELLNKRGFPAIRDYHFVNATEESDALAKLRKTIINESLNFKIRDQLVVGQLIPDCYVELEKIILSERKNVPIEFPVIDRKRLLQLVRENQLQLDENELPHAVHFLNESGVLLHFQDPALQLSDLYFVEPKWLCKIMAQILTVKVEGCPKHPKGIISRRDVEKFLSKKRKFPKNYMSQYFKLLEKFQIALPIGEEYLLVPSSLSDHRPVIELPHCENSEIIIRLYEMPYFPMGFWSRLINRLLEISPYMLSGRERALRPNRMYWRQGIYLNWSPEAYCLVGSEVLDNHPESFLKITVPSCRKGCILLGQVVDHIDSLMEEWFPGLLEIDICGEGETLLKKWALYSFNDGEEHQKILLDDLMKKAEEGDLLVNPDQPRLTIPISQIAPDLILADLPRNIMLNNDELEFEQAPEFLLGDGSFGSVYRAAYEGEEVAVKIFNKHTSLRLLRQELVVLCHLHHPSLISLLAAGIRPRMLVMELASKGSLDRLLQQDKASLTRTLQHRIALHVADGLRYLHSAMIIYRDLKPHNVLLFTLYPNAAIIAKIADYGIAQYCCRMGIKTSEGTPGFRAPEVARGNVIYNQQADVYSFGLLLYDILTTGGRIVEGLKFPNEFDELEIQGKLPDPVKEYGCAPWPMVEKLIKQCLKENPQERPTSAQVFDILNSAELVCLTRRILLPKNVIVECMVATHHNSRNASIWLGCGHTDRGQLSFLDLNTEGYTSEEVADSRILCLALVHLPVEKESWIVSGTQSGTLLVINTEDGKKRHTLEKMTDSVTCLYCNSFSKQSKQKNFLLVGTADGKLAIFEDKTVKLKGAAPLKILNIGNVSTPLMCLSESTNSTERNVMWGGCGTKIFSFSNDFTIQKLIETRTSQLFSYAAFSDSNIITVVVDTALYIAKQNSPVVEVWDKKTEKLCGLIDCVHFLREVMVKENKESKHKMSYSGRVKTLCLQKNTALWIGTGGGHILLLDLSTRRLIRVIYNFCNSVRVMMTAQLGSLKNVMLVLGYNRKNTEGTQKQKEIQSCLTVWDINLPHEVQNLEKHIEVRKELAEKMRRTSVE

Cc1c2c(nn1C1CC3CCC(C1)O3)OCCC(C)Nc1nc(ncc1Cl)N2 (single isomer, unassigned) [E249, 14-Chloro-4,11-dimethyl-5-{8-oxabicyclo[3.2.1]octan-3-yl}-8-oxa-2,5,6,12,16,17-hexaazatricyclo[11.3.1.0^3,7] heptadeca-1(16),3,6,13(17),14-pentaene]
IC50: ≤ 100 nM

COC1CNc2nc(ncc2Cl)Nc2c(nn(C3CCC(C)CC3)c2C)OC1 (single isomer, unassigned) [E255, 14-Chloro-10-methoxy-4-methyl-5-(4-methylcyclohexyl)-8-oxa-2,5,6,12,16,17-hexaazatricyclo [11.3.1.0^3,7] heptadeca-1(16),3,6,13(17),14-pentaene]
IC50: ≤ 100 nM

Cc1c2c(nn1C1CCC(C)CC1)OCCCNc1nc(ncc1Cl)N2 (single isomer, unassigned) [E257, 14-Chloro-4-methyl-5-(4-methylcyclohexyl)-8-oxa-2,5,6,12,16,17-hexaazatricyclo[11.3.1.0^3,7]heptadeca-1(16),3,6,13 (17),14-pentaene]
IC50: ≤ 100 nM

COC1CNc2nc(ncc2Cl)Nc2c(nn(CC(F)(F)F)c2C)OC1 (single isomer, unassigned) [E269, 14-Chloro-10-methoxy-4-methyl-5-(2,2,2-trifluoroethyl)-8-oxa-2,5,6,12,16,17-hexaazatricyclo[11.3.1.0^3,7] heptadeca-1(16),3,6,13 (17),14-pentaene]
IC50: ≤ 100 nM

Cc1c2c(nn1C1CCC(C(F)(F)F)CC1)OCCCNc1nc(ncc1Cl)N2 (single isomer, unassigned) [E276, 14-Chloro-4-methyl-5-[4-(trifluoromethyl)cyclohexyl]-8-oxa-2,5,6,12,16,17-hexaazatricyclo[11.3.1.0^3,7] heptadeca-1(16),3,6,13(17),14-pentaene]
IC50: ≤ 100 nM

Cc1c2c(nn1C1CCC(C(F)(F)F)CC1)OCCC(C)Nc1nc(ncc1Cl)N2 (single isomer, unassigned) [E281, 4-Chloro-4,11-dimethyl-5-[4-(trifluoromethyl)cyclohexyl]-8-oxa-2,5,6,12,16,17-hexaazatricyclo[11.3.1.0^3,7] heptadeca-1(16),3,6,13(17),14-pentaene]
IC50: ≤ 100 nM

Cc1c2c(nn1C1CCOCC1)OCC(OC(F)F)CNc1nc(ncc1Cl)N2 (single isomer, unassigned) [E284, 14-Chloro-10-(difluoromethoxy)-4-methyl-5-(oxan-4-yl)-8-oxa-2,5,6,12,16,17-hexaazatricyclo[11.3.1.0^3,7] heptadeca-1(16),3,6,13(17),14-pentaene]
IC50: ≤ 100 nM

Cc1c2c(nn1C1CCCOC1)OCCCNc1nc(ncc1Br)N2 (single isomer, unassigned) [E288, 14-Bromo-4-methyl-5-(oxan-3-yl)-8-oxa-2,5,6, 12,16,17-hexaazatricyclo[11.3.1.0^3,7]heptadeca-1(16),3,6,13(17), 14-pentaene]
IC50: ≤ 100 nM

Cc1c2c(nn1C1CC(N3CCC(F)(F)C3)C1)OCCC(C)Nc1nc(ncc1Cl)N2 (single isomer, unassigned) [E314, 14-Chloro-5-[3-(3,3-difluoropyrrolidin-1-yl)cyclobutyl]-4,11-dimethyl-8-oxa-2,5,6,12,16,17-hexaazatricyclo [11.3.1.0^3,7]-heptadeca-1(16),3,6,13(17),14-pentaene]
IC50: ≤ 100 nM

Cc1c2c(nn1C1COC1)OCC(F)CNc1nc(ncc1Cl)N2 (single isomer, unassigned) [E322, 14-Chloro-10-fluoro-4-methyl-5-(oxetan-3-yl)-8-oxa-2,5,6,12,16,17-hexaazatricyclo[11.3.1.0^3,7]heptadeca-1(16),3,6,13(17),14-pentaene]
IC50: ≤ 100 nM

Cc1c2c(nn1C1COCCC1F)OCC[C@@H](C)Nc1nc(ncc1Cl)N2 (single isomer, unassigned) [E325]
IC50: ≤ 100 nM

COC1COc2nc(ncc2Cl)Nc2c(nn(C3CCOCC3)c2C)OC1 (single isomer, unassigned) [E328, 14-Chloro-10-methoxy-4-methyl-5-(oxan-4-yl)-8,12-dioxa-2,5,6,16,17-pentaazatricyclo[11.3.1.0^3,7]heptadeca-1(16),3,6,13(17),14-pentaene]
IC50: ≤ 100 nM

Cc1c2c(nn1C1CCOCC1)OCCC(C)Oc1nc(ncc1Cl)N2 (single isomer, unassigned) [E330, 14-Chloro-4,11-dimethyl-5-(oxan-4-yl)-8,12-dioxa-2,5,6,16,17-pentaazatricyclo[11.3.1.0^3,7]heptadeca-1(17), 3,6,13,15-pentaene]
IC50: ≤ 100 nM

Cc1c2c(nn1C1CCOCC1F)OCC(F)CNc1nc(ncc1Cl)N2 (single isomer, unassigned) [E334, 14-Chloro-10-fluoro-5-(3-fluorooxan-4-yl)-4-methyl-8-oxa-2,5,6,12,16,17-hexaazatricyclo[11.3.1.0^3,7] heptadeca-1(16),3,6,13(17),14-pentaene]
IC50: ≤ 100 nM

COC1CNc2nc(ncc2Cl)Nc2c(nn(C3CCOCC3)c2Cl)OC1 (single isomer, unassigned) [E341, 4,14-Dichloro-10-methoxy-5-(oxan-4-yl)-8-oxa-2,5,6,12,16,17-hexaazatricyclo[11.3.1.0^3,7]heptadeca-1(16),3,6,13(17),14-pentaene]
IC50: ≤ 100 nM

Cc1c2c(nn1C1CCOCC1)OCCC(C)Nc1cc(ncc1Cl)N2 (single isomer, unassigned) [E345, 14-Chloro-4,11-dimethyl-5-(oxan-4-yl)-8-oxa-2,5,6,12,16-pentaazatricyclo[11.3.1.0^3,7]heptadeca-1(16),3,6,13 (17),14-pentaene]
IC50: ≤ 100 nM

Cc1c2c(nn1C1CCCOC1)OCCC(C)Nc1cc(ncc1Cl)N2 (single isomer, unassigned) [E346, 14-Chloro-4,11-dimethyl-5-(oxan-3-yl)-8-oxa-2,5,6,12,16-pentaazatricyclo[11.3.1.0^3,7]heptadeca-1(16),3,6,13 (17),14-pentaene]
IC50: ≤ 100 nM

Cc1c2c(nn1C1COCC(F)C1)OCCCNc1nc(ncc1Cl)N2 (single isomer, unassigned) [E371, 14-Chloro-5[5-fluorooxan-3-yl]-4-methyl-8-oxa-2,5,6,12,16,17-hexaazatricyclo[11.3.1.0^3,7]heptadeca-1(16),3,6, 13(17),14-pentaene]
IC50: ≤ 100 nM

Cc1c2c(nn1C1CCC(N3CCOCC3)CC1)OCCCNc1nc(ncc1Cl)N2 (single isomer, unassigned) [E380, 14-Chloro-4-methyl-5-[4-(morpholin-4-yl)cyclohexyl]-8-oxa-2,5,6,12,16,17-hexaazatricyclo [11.3.1.0^3,7]heptadeca-1(16),3,6,13(17),14-pentaene]
IC50: ≤ 100 nM

Cc1c2c(nn1C1CCN(C3CCOC3)CC1)OCC[C@@H](C)Nc1nc(ncc1Cl)N2 (single isomer, unassigned) [E383]
IC50: ≤ 100 nM

Cc1c2c(nn1C1CCOCC1(F)F)OCC[C@@H](C)Nc1nc(ncc1Cl)N2 (single isomer, unassigned) [E392]
IC50: ≤ 100 nM

Cc1c2c(nn1C1CN(C3COC3)CCC1(F)F)OCCCNc1nc(ncc1Cl)N2 (single isomer, unassigned) [E408, 14-Chloro-5-[4,4-difluoro-1-(oxetan-3-yl)piperidin-3-yl]-4-methyl-8-oxa-2,5,6,12,16,17-hexaazatricyclo[11.3.1.0^3,7]heptadeca-1(16),3,6,13(17),14-pentaene]
IC50: ≤ 100 nM

Cc1c2c(nn1C1CCOCC1C)OCCCNc1nc(ncc1Cl)N2 (single isomer, unassigned) [E412]
IC50: ≤ 100 nM

C[C@@H]1CCOc2nn(C3CN(C4COC4)CCC3(F)F)c(Cl)c2Nc2ncc(Cl)c(n2)N1 (single isomer, unassigned) [E442]
IC50: ≤ 100 nM

Cc1c2c(nn1C1CCOCC1C(F)(F)F)OCC[C@@H](C)Nc1nc(ncc1Cl)N2 (single isomer, unassigned) [E448]
IC50: ≤ 100 nM

COC1CNc2nc(ncc2Cl)Nc2c(nn(C3CCOCC3)c2C)OC1 (centres unmarked) [E2, 14-Chloro-10-methoxy-4-methyl-5-(oxan-4-yl)-8-oxa-2,5,6,12,16,17-hexaazatricyclo [11.3.1.0^3,7]heptadeca-1(16),3,6,13(17),14-pentaene]
IC50: ≤ 100 nM
